Read-outs that look alike come from different tables or passages of the source.
Experiments:
[1] = target: LdtMab1, wild-type (MAB_3165c, orthologue of LdtMt1) (Mycobacteroides abscessus, UniProt B1MDC1); test: biochemical; format: binding, Mycobacterium abscessus; conditions: Figure 6; ITC, wt, protein 150 μM, ligand 2 mM, pH 8.0, 24° C.
[2] = target: T1, LdtMt2, wild-type (L,D-transpeptidase of M. tuberculosis; fragment without N-terminal transmembrane domain, N-terminal His6, TEV-cleavable) (Mycobacterium tuberculosis, UniProt I6Y9J2); test: biochemical; format: binding
T1 construct: Fragments excluding the putative transmembrane domain were cloned, expressed and purified; His6 (TEV-cleavable) (N); made in house; host or cells: E. coli BL21(DE3)

LdtPa = test: UPLC-MS analysis of protein-drug adducts, LdtPa; format: binding, P. aeruginosa
LdtMab1 [3] = target: T2, LdtMab1 (Mycobacteroides abscessus, UniProt B1MDC1); test: UPLC-MS analysis of protein-drug adducts, LdtMab1; format: binding, M. abscessus
LdtCl = test: UPLC-MS analysis of protein-drug adducts, LdtCl; format: binding, E. cloacae; conditions: for reaction and covalent adduct formation: evolved carbapenem alone
Description: Ultra-performance liquid chromatography-high resolution mass spectrometry (UPLC-MS) with a Waters Acquity H-Class system utilizing a Waters Acquity BEH-300 UPLC column packed with a C4 stationary phase (2.1×50 mm, 1.7 μm) in conjunction with HRMS analysis by a Waters Xero-G2 quadropole-TOF electrospray mass spectrometer was used to detect and analyze protein-drug adducts. Each enzyme (2 μM) in 25 mM Tris buffer, pH 8, was incubated in the absence or presence of drugs (50 μM) at room temperature for 5 hours. Trifluoroacetic acid (0.1% final) was used to quench the reactions, samples were filtered through a 0.22 um filter and analyzed using UPLC-MS as follows: Mobile phase: 0-1 min 90% water+10% ACN+0.1% formic acid, 1-7.5 min gradient up to 20% water+80% ACN+0.1% formic acid, 7.5-8.4 min 20% water+80% ACN+0.1% formic acid, 8.4-8.5 min gradient up to 90% water+10% ACN+0.1% formic acid, 8.5-10 min 90% water+10% ACN+0.1% formic acid. Flow rate=0.3 mL min^−1. T=60° C.

LdtMab2 [4] = test: UPLC-MS analysis of protein-drug adducts, LdtMab2; format: binding, M. abscessus; conditions: for reaction and covalent adduct formation: evolved carbapenem alone
LdtKp = test: UPLC-MS analysis of protein-drug adducts, LdtKp; format: binding, K. pneumoniae
LdtMt2 [5] = target: T3, LdtMt2 (Mycobacterium tuberculosis, UniProt I6Y9J2); format: binding, M. tuberculosis; conditions: for Kd: 24° C., tris pH 8.0
LdtMab2 [6] = target: LdtMab2 (Mycobacteroides abscessus, UniProt B1MMQ4); test: Isothermal titration calorimetry, binding to LdtMab2; set-up: species or system M. abscessus; conditions: ITC, 24° C., tris pH 8.0
LdtMt2 [7] = target: T3, LdtMt2; test: biochemical; set-up: species or system M. tuberculosis; conditions: for kinact/KI: read-out: kinact/Kapp ratio
[8] = system: M. tuberculosis, M. abscessus, A. baumannii, K. pneumoniae, E. cloacae, P. aeruginosa, E. faecalis and S. aureus; test: Minimum inhibitory concentration (MIC90), broth dilution, panel of pathogens; format: cell-based; conditions: panel of tested pathogens
LdtMt1 [9] = target: T4, LdtMt1 (Mycobacterium tuberculosis, UniProt O53638); test: biochemical; format: binding, M. tuberculosis
LdtMt2 [10] = target: T3, LdtMt2; format: binding, M. tuberculosis
M. tuberculosis [11] = format: in vivo, BALB/c mice; conditions: for gross pathology of lungs (tuberculous lesions): mouse, in vivo
human DHP-1 = target: T5, human DHP-1 (Homo sapiens, UniProt P16444); conditions: cited from earlier work
T5 sequence (P16444 17-385): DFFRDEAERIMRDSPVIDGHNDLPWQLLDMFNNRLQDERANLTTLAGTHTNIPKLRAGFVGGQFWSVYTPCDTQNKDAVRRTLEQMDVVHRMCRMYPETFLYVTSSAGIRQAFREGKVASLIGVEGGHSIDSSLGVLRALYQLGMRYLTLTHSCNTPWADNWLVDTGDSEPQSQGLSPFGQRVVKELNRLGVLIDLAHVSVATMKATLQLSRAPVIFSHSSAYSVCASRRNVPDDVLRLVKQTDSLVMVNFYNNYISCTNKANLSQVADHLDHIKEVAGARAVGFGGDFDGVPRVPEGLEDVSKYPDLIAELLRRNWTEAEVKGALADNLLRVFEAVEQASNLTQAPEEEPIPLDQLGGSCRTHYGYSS

M. tuberculosis [12] = conditions: oral gavage; recent report; cited from earlier work
LdtMt1 [13] = target: T4, LdtMt1; format: binding, M. tuberculosis
LdtMab1 [14] = target: T2, LdtMab1; test: Isothermal titration calorimetry, binding to LdtMab1; conditions: ITC, 24° C., tris pH 8.0
M. tuberculosis [15] = conditions: mouse, in vivo; cited from earlier work
[16] = 10 μM LdtMt2, MES pH 6.5, 10° C.
[17] = 10 μM LdtMt2, MES pH 6.5, 10° C., read-out: kinact (converted)
[18] = competition: equimolar mixture of doripenem, biapenem, faropenem and tebipenem, within one minute
[19] = equimolar mixture of amoxicillin, cephalothin, aztreonam and faropenem

T2 sequence (B1MDC1 entry or part of it): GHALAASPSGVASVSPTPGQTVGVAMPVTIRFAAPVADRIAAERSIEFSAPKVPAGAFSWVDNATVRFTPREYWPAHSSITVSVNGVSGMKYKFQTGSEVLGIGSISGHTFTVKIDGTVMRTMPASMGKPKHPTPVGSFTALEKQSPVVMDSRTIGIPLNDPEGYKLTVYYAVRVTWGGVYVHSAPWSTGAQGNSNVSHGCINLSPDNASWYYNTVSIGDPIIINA
T1 sequence (I6Y9J2 56-408 limits assumed): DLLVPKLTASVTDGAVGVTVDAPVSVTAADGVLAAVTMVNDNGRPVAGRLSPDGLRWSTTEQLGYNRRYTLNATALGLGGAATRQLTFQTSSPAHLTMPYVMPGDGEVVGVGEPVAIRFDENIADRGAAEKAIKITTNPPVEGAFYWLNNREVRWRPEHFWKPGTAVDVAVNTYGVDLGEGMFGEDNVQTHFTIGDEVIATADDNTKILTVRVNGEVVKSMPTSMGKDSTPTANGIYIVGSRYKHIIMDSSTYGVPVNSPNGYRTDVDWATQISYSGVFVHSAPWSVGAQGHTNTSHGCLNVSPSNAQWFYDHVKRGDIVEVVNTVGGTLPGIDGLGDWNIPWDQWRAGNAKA
T3 sequence (I6Y9J2 56-408 limits assumed): as above
T4 sequence (O53638 32-251 limits assumed): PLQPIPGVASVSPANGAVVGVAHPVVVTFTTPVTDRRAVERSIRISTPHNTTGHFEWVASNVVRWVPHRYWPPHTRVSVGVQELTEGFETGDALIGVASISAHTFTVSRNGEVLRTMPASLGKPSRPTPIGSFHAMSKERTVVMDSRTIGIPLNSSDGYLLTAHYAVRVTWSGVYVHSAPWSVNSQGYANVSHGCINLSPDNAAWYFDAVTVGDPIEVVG
LdtMab2 (Mycobacteroides abscessus, UniProt B1MMQ4), sequence (B1MMQ4 62-406 limits assumed): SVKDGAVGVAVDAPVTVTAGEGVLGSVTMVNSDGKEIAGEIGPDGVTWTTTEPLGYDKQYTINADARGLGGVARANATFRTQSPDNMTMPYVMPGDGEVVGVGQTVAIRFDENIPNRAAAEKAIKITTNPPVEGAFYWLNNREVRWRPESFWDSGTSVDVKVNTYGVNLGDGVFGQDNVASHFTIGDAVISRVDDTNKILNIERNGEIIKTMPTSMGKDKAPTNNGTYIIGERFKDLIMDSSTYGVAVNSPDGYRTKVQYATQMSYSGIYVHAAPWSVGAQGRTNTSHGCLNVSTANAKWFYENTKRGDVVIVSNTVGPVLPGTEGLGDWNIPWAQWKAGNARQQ
LdtMab1, wild-type (MAB_3165c, orthologue of LdtMt1), sequence (B1MDC1 21-248): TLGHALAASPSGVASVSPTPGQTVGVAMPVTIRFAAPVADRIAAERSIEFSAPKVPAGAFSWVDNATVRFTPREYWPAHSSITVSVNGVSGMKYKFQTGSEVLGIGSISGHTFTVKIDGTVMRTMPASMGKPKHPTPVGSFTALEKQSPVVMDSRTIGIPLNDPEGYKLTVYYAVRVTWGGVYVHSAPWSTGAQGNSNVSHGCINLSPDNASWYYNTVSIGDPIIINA

Compound `CC1(C)S[C@@H]2[C@H](NC(=O)[C@H](N)c3ccc(O)cc3)C(=O)N2[C@H]1C(=O)O` [Amoxicillin] has a Kd [1] of 1290 µM.
`CC(=O)OCC1=C(C(=O)O)N2C(=O)[C@@H](NC(=O)Cc3cccs3)[C@H]2SC1` [Cephalothin] showed a Kd [1] of 30.3 µM and a Kd [2] of 200 µM.
For `COC(=O)CSC1=C(C(=O)[O-])N2C(=O)[C@H]([C@@H](C)O)[C@H]2[C@H]1C.[Na+]` [T205, sodium (4R,5S,6S)-6-((R)-1-hydroxyethyl)-3-((2-methoxy-2-oxoethyl)thio)-4-methyl-7-oxo-1-azabicyclo[3.2.0]hept-2-ene-2 carboxylate], the “reaction and covalent adduct formation” value (LdtPa) was “reacted and formed covalent adducts”, the “reaction and covalent adduct formation” value (LdtMab1 [3]) was “reacted and formed covalent adducts” and the “reaction and covalent adduct formation” value (LdtCl) was “reacted and formed covalent adducts”. For the same compound, the “reaction and covalent adduct formation” value (LdtMab2 [4]) was “did not react”, the “reaction and covalent adduct formation” value (LdtKp) was “reacted and formed covalent adducts” and the Kd [2] was 155 µM.
For `CCCOC(=O)CSC1=C(C(=O)O)N2C(=O)[C@H]([C@@H](C)O)[C@H]2[C@H]1C` [T206], the “reaction and covalent adduct formation” value (LdtPa) was “did not react”, the “reaction and covalent adduct formation” value (LdtMab1 [3]) was “reacted and formed covalent adducts” and the Kd (LdtMt2 [5]; ITC) was “low to sub μM range”. For the same compound, the “reaction and covalent adduct formation” value (LdtCl) was “reacted and formed covalent adducts”, the Kd (LdtMab2 [6]) was “low to sub μM range” and the “reaction and covalent adduct formation” value (LdtMab2 [4]) was “did not react”. For the same compound, the “reaction and covalent adduct formation” value (LdtKp) was “reacted and formed covalent adducts” and the Kd [2] was 2.8 µM.
For `C[C@@H](O)[C@H]1C(=O)N2C(C(=O)O)=C(SCC(=O)OC3CCCCC3)[C@H](C)[C@H]12` [T208], the “reaction and covalent adduct formation” value (LdtPa) was “reacted and formed covalent adducts”, the “reaction and covalent adduct formation” value (LdtMab1 [3]) was “reacted and formed covalent adducts” and the Kd (LdtMt2 [5]; ITC) was “low to sub μM range”. For the same compound, the “reaction and covalent adduct formation” value (LdtCl) was “reacted and formed covalent adducts”, the Kd (LdtMab2 [6]) was “low to sub μM range” and the “reaction and covalent adduct formation” value (LdtMab2 [4]) was “did not react”. The “reaction and covalent adduct formation” value (LdtKp) was “reacted and formed covalent adducts”, the Kapp (LdtMt2 [7]; [16]) was 4.8 ± 2.9 µM and the kinact (LdtMt2 [7]; [17]) was 0.045 s⁻¹. The Kd [2] was 5.65 µM.
In the case of `CSC1=C(C(=O)O)N2C(=O)[C@H]([C@@H](C)O)[C@H]2[C@H]1C` [T210], the “reaction and covalent adduct formation” value (LdtPa) is reported as “reacted and formed covalent adducts”, the “reaction and covalent adduct formation” value (LdtMab1 [3]) is reported as “reacted and formed covalent adducts” and the “reaction and covalent adduct formation” value (LdtCl) is reported as “reacted and formed covalent adducts”. For the same compound, the Kd (LdtMab2 [6]) was “low to sub μM range”, the “reaction and covalent adduct formation” value (LdtMab2 [4]) was “did not react” and the “reaction and covalent adduct formation” value (LdtKp) was “reacted and formed covalent adducts”. It also gave a Kapp (LdtMt2 [7]; [16]) of 20.8 ± 3.3 µM.
For `C[C@@H](O)[C@H]1C(=O)N2C(C(=O)O)=C(SCC(F)(F)F)[C@H](C)[C@H]12` [T221], the “minimum inhibitory concentration (MIC90) / growth inhibition” value [8] was “inhibit growth of all tested pathogens except P. aeruginosa”.
In the case of `C[C@@H](O)[C@H]1C(=O)N2C(C(=O)O)=C(SCc3ccccc3)[C@H](C)[C@H]12` [T222], the “minimum inhibitory concentration (MIC90) / growth inhibition” value [8] is reported as “inhibit growth of all tested pathogens except P. aeruginosa”.
With `C[C@@H](O)[C@H]1C(=O)N2C(C(=O)O)=C(SCCc3ccccc3)[C@H](C)[C@H]12` [T223] the “minimum inhibitory concentration (MIC90) / growth inhibition” value [8] was “inhibit growth of all tested pathogens except P. aeruginosa”.
With `C[C@@H](O)[C@H]1C(=O)N2C(C(=O)O)=C(Sc3c[nH]c4ccccc34)[C@H](C)[C@H]12` [T224] the “minimum inhibitory concentration (MIC90) / growth inhibition” value [8] was “inhibit growth of all tested pathogens except P. aeruginosa”.
With `CC1(C)S[C@@H]2[C@H](NC(=O)[C@H](N)c3ccc(O)cc3)C(=O)N2[C@H]1C(=O)O` [amoxicillin] the heat of association (LdtMt1 [9]; ITC) was “could not be detected” and the heat of association (LdtMt2 [5]; ITC) was “could not be detected”.
For `C[C@H]1[C@H](NC(=O)/C(=N\OC(C)(C)C(=O)O)c2csc(N)n2)C(=O)N1S(=O)(=O)O` [aztreonam], the heat of association (LdtMt1 [9]; ITC) was “could not be detected” and the heat of association (LdtMt2 [5]; ITC) was “could not be detected”.
With `C[C@@H](O)[C@H]1C(=O)N2C(C(=O)[O-])=C(SC3Cn4cnc[n+]4C3)[C@H](C)[C@H]12` (stereo partly shown) [biapenem] the “mass of stable adduct with wild-type LdtMt2” value (“mass of stable adduct” below) (LdtMt2 [10]; UPLC-MS) was “+138 Da”, the “gross pathology of lungs (tuberculous lesions)” value (M. tuberculosis [11]) was “no tuberculous lesions” and the “M. tuberculosis burden in the lungs” value (M. tuberculosis [11]; three weeks of treatment) was “no less effective than rifampicin”. For the same compound, the “bactericidal activity in vivo” value (M. tuberculosis [11]; three weeks of treatment) was “lacked bactericidal activity”, the “metabolism by human DHP-1” value (human DHP-1) was “not readily metabolized” and the Kapp (LdtMt2 [7]; [16]) was 15.3 ± 2.5 µM. For the same compound, the kinact (LdtMt2 [7]; [17]) was 0.06 s⁻¹ and the kinact/KI (LdtMt2 [7]) was 3830 M⁻¹ s⁻¹.
In the case of `CC(=O)OCC1=C(C(=O)O)N2C(=O)[C@@H](NC(=O)Cc3cccs3)[C@H]2SC1` [cephalothin], the heat of association (LdtMt1 [9]) is reported as “could not be detected” and the heat of association (LdtMt2 [5]) is reported as “could not be detected”.
For `C[C@@H](O)[C@H]1C(=O)N2C(C(=O)O)=C(S[C@@H]3CN[C@H](CNS(N)(=O)=O)C3)[C@H](C)[C@H]12` [doripenem], the “mass of stable adduct” value (LdtMt2 [10]) was 123 Da, the Kapp (LdtMt2 [7]; pH 6.5) was 32.6 ± 11.3 µM and the kinact (LdtMt2 [7]; pH 6.5) was 0.122 s⁻¹. It also gave a kinact/KI (LdtMt2 [7]) of 3670 M⁻¹ s⁻¹.
In the case of `Cc1oc(=O)oc1COC(=O)C1=C([C@H]2CCCO2)S[C@@H]2[C@@H]([C@@H](C)O)C(=O)N12` [faropenem medoxomil], the “M. tuberculosis burden in the lungs” value (M. tuberculosis [12]) is listed as “ineffective”.
For `C[C@@H](O)[C@H]1C(=O)N2C(C(=O)O)=C([C@H]3CCCO3)S[C@H]12` [faropenem], the “adducts detected in competition” value (LdtMt1 [13]) was “faropenem adducts gave the only masses we could detect”, the “proteins reacted exclusively with the drug” value (“proteins reacted exclusively” for short) (LdtMt1 [13]) was 100% and the “mass of adduct with LdtMt1” value (LdtMt1 [13]; covalently attached to C226) was 86 Da. For the same compound, the Kd (LdtMab1 [14]) was 0.16 µM, the “adducts detected in competition” value (LdtMt2 [10]) was “faropenem adducts gave the only masses we could detect” and the “proteins reacted exclusively” value (LdtMt2 [10]) was 100%. For the same compound, the “mass of stable adduct” value (LdtMt2 [10]; UPLC-MS) was “+86 Da”, the “adducts detected in competition” value (LdtMab1 [3]) was “faropenem adducts gave the only masses we could detect” and the “proteins reacted exclusively” value (LdtMab1 [3]) was 100%. For the same compound, the Kd (LdtMt1 [9]; ITC, 24° C., tris pH 8.0, single binding modality) was 3.98 µM, the “gross pathology of lungs (tuberculous lesions)” value (M. tuberculosis [11]) was “developed tuberculous lesions in the lungs but their pathology and the bacterial burden were lower compared to untreated mice” and the “M. tuberculosis burden in the lungs” value (M. tuberculosis [11]; three weeks of treatment) was “lower compared to untreated mice”. The “survival / overall health of infected mice” value (M. tuberculosis [11]; used alone) was “prolonged the life of mice”, the “proteins reacted exclusively” value (LdtCl; [18]) was 100% and the “adducts detected in competition” value (LdtCl; [19]) was “faropenem adducts gave the only masses we could detect”. The Kd (LdtMab2 [6]; read-out: Kd) was 6.25 µM, the “proteins reacted exclusively” value (LdtMab2 [4]; [18]) was 100% and the “adducts detected in competition” value (LdtMab2 [4]; [19]) was “faropenem adducts gave the only masses we could detect”. The “adducts detected in competition” value (LdtKp) was “faropenem adducts gave the only masses we could detect”, the “proteins reacted exclusively” value (LdtKp) was 100% and the Kapp (LdtMt2 [7]; [16]) was 49.2 ± 11.9 µM.
In the case of `C[C@@H](O)[C@H]1C(=O)N2C(C(=O)O)=C(S[C@@H]3CN[C@H](C(=O)N(C)C)C3)[C@H](C)[C@H]12` [meropenem], the “activity in macrophages and mice infected with M. tuberculosis” value (M. tuberculosis [15]) is given as “limited activity”.

— US10695322B2 (priority 2016, dated 2020)
